How the values were obtained:
[1] = plasma kinetics of TMC278 in the beagle dog after single intramuscular administration of aqueous 30% DMA/50% PEG400 solution; assay type: in vivo; conditions: single IM 2.5 mg/kg
Procedure: The study was performed in order to study the plasma kinetics and the absolute bioavailability of TMC278 in the beagle dog after single intramuscular administration (IM) of an aqueous 30% dimethylacetamide (DMA)/50% polyethylene glycol 400 (PEG400) solution of TMC278 at 2.5 mg/kg. The dogs were dosed IM.
Two male beagle dogs (dog No. 16924 and 16854), approximately 3 years old and weighing between 11 and 12 kg at the start of the experimental phase, were used in the present experiment. The dogs were dosed intramuscularly at 0.1 ml/kg body weight by injecting the formulation in the left (dog No. 16924) or right (dog No. 16854) m. biceps femoris. […]
Blood samples (4 ml on EDTA) were taken from a jugular vein from the dogs at 0 (=predose), 0.5, 1, 2, 4, 8, 24, 32, 48, 72, 96, 144, 192, 240 and 312 h after dose administration. […] These samples were analogously processed and analysed.
On day 232 post-dose, a biopsy was performed (dog No. 16924 only) on the iliac lymph node (at the side of injection), on a muscle from the non-injected hind leg and on a muscle at the side of injection after ultrasonographic examination. […] This sample was processed and analysed similarly to the other blood samples.
The concentration of TMC278 in dog plasma was determined by a qualified research LC-MS/MS method after solid phase extraction (SPE). […]

[2] = tested on: wild type HIV and mutated variants; conditions: cited from earlier work

Question: Which “t1/2,24-72h” value ([1]; mean (n=2)) does the source give for `Cc1cc(C=CC#N)cc(C)c1Nc1ccnc(Nc2ccc(C#N)cc2)n1` [TMC278, 4-[[4-[[4-(2-cyanoethenyl)-2,6-dimethylphenyl]amino]-2-pyrimidinyl]amino]benzonitrile] here?
Answer: 63.1 h

Question: And the “course of plasma levels after 72 h post-dose” value ([1]; 72 h up to 312 h post-dose)?
Answer: remained fairly constant or slightly increased

Question: And the “activity against wild type HIV and many of its mutated variants” value [2]?
Answer: pronounced activity

Source: patent USRE50189E1, “Long term treatment of HIV-infection with TMC278” (Janssen Sciences Ireland Unlimited Company, priority 2006, dated 2024)
